Measurements from publication PMC11434080, “Acetylation of Oleanolic Acid Dimers as a Method of Synthesis of Powerful Cytotoxic Agents” (Molecules, 2024).
“Also recorded” adds a separate entry of the source. Where two headings read alike, the source gives them in different places.

Tests used:
[1] = tested on: PC-3; assay: MTT assay, PC-3; format: cell-based, human; conditions: for IC50: value (SD); for B SI: Selectivity Index = IC50 HDF / IC50 of PC-3
Experimental: (§1) The cytotoxic activity of oleanolic acid (mother compound, 1, Figure 2) and its 14 derivatives (3a–3n, Figure 2) was tested in vitro using the standard MTT method based on viability assay, e.g., [44] against carcinoma cell lines: SKBR-3, SKOV-3, PC-3, U-87, and one normal cell line: HDF.
(§2) Human cancer cells: SKBR-3 and SKOV-3 were cultured in McCoy’s Modified Medium; PC-3 was cultured in an F-12K medium; U-87 was cultured in EMEM medium; HDF was cultured in Fibroblast Basal Medium. Each medium was supplemented with 10% fetal bovine serum, 1% L- glutamine, and 1% penicillin/streptomycin solution. The cell lines were kept in an incubator at 37 °C. All the cell lines and mediums were obtained from the American Type Culture Collection (ATCC) supplied by LGC-Standards (Lomianki, Poland).
(§3) The MTT assay was conducted as described earlier, e.g., [44]. In short, this method is based on the reaction between mitochondria enzymes (dehydrogenases) of tested cell lines and 3-(4,5-dimethylthiazol-2-yl)-2,5-diphenyltetrazolium bromide (MTT). The final product of this reaction gives violet formazan crystals. The number of live cells is proportional to the amount of formazan and is represented by the violet dye reagent. The details of the experiments are given in [44].

[2] = tested on: HDF; assay: MTT assay, HDF normal cell line; format: cell-based; conditions: Homo sapiens, value (SD)
Experimental: as §1, §2, §3

[3] = CUPRAC antioxidant assay
Source text: (§4) The results of the antioxidant activity of oleanolic acid (1) and Acetylated Oleanolic Acid Dimers (AcOADs) 3a–3n evaluated with CUPRAC and DPPH assays are given in Figure 3. The results are presented as % inhibition of the copper(II) ions and Trolox equivalent (blue bars) calculated from the standard curve, presented in the Supplementary Materials (Supplementary Materials S02, Figure S1) and as % inhibition of the DPPH radical and Trolox equivalent (pink bars), calculated from the standard curve presented in the Supplementary Materials (Supplementary Materials S02, Figure S2).
(§5) The CUPRAC reagent (7.5 mM ethanolic 96% neocuproine solution, 10 mM CuCl2 × H2O solution, and an ammonium acetate buffer of pH 7.0) and DPPH reagent (2,2-diphenyl-1-picrylhydrazyl 0.2 mM solution) were applied.
(§6) The DPPH assay relies on the ability of an antioxidant to donate a hydrogen atom or an electron to the stable DPPH radical, resulting in its reduction and subsequent color change. In contrast, the CUPRAC method measures the reducing power of a sample by quantifying its ability to convert the Cu-neocuproine reagent complex into the Cu(I) form. The results are presented as % inhibition of the copper(II) ions and Trolox equivalent (blue bars) calculated from the standard curve (Supplementary Materails S02, Figure S1) and as % inhibition of the DPPH radical and Trolox equivalent (pink bars), calculated from the standard curve (Supplementary Materials S02, Figure S2). The details of the experiments are given in [46].

[4] = tested on: SKOV-3; assay: MTT assay, SKOV-3; format: cell-based, human; conditions: for IC50: SKOV-3 human ovarian cystadenocarcinoma, value (SD); for SKOV-3 SI: Selectivity Index = IC50 HDF / IC50 SKOV-3
Experimental: as §1, §2, §3

[5] = tested on: U-87; assay: MTT assay, U-87; format: cell-based, human; conditions: for U-87 SI: Selectivity Index = IC50 HDF / IC50 U-87; for IC50: U-87 MG, MTT assay, U-87 human glioblastoma, value (SD)
Experimental: as §1, §2, §3

[6] = tested on: SKBR-3; assay: MTT assay, SKBR-3; format: cell-based, human; conditions: for IC50: SKBR-3 human breast adenocarcinoma, value (SD); for SKBR-3 SI: Selectivity Index = IC50 HDF / IC50 SKBR-3
Experimental: as §1, §2, §3

[7] = tested on: SKBR-3, SKOV-3, PC-3, and U-87 cancer cell lines; assay: MTT assay, four cancer cell lines taken together; format: cell-based, human; conditions: for IC50: MTT, across SKBR-3, SKOV-3, PC-3, U-87; for Selectivity Index value: IC50 HDF / IC50 cancer cell line, across the four cancer lines; for level of cytotoxic activity relative to oleanolic acid (1): four cancer cell lines, times more active than oleanolic acid (1)
Experimental: as §1, §2, §3

[8] = DPPH antioxidant assay; conditions: for DPPH activity (in words): Figure 3
Source text: as §4, §5, §6

[9] = MTT assay, PC-3 human prostate carcinoma, read-out: B IC50 (SD)

| SMILES | IC50 [1, 9] | B SI [1] | IC50 [2] | IC50 ([4]; SK-OV-3, MTT assay) | SKOV-3 SI [4] | U-87 SI [5] | IC50 [5] | IC50 ([6]; SK-BR-3, MTT assay) | SKBR-3 SI [6] | IC50 ([7]; Homo sapiens) | Selectivity Index value [7] | other results |
| --- | --- | --- | --- | --- | --- | --- | --- | --- | --- | --- | --- | --- |
| CC(=O)OC1CCC2(C)C(CCC3(C)C2CC=C2C4CC(C)(C)CCC4(C(=O)OCC=CCOC(=O)C45CCC(C)(C)CC4C4=CCC6C7(C)CCC(OC(C)=O)C(C)(C)C7CCC6(C)C4(C)CC5)CCC23C)C1(C)C (stereo not shown) [Compound 3e] | 3.35 µM | 1.99 | 6.66 µM | 2.95 µM | 2.26 | 1.91 | 3.48 µM | 3.07 µM | 2.17 | 2.5 to 4.5 µM | – | CUPRAC activity (in words) ([3]; Figure 3): highest CUPRAC activity |
| CC(=O)OC1CCC2(C)C(CCC3(C)C2CC=C2C4CC(C)(C)CCC4(C(=O)OCCCOC(=O)C45CCC(C)(C)CC4C4=CCC6C7(C)CCC(OC(C)=O)C(C)(C)C7CCC6(C)C4(C)CC5)CCC23C)C1(C)C (stereo not shown) [Compound 3c] | 2.94 µM | 1.04 | 3.07 µM | 3.15 µM | 0.97 | 0.99 | 3.11 µM | 3.82 µM | 0.80 | 2.5 to 4.5 µM | lower than 1 | – |
| CC(=O)OC1CCC2(C)C(CCC3(C)C2CC=C2C4CC(C)(C)CCC4(C(=O)OCCCCCCCCCOC(=O)C45CCC(C)(C)CC4C4=CCC6C7(C)CCC(OC(C)=O)C(C)(C)C7CCC6(C)C4(C)CC5)CCC23C)C1(C)C (stereo not shown) [Compound 3k] | 2.45 µM | 0.79 | 1.94 µM | 2.66 µM | 0.73 | 0.92 | 2.1 µM | 2.61 µM | 0.74 | ~2 µM | – | DPPH activity (in words) [8]: higher antioxidant activity than OA |
| CC(=O)OC1CCC2(C)C(CCC3(C)C2CC=C2C4CC(C)(C)CCC4(C(=O)OCCCCOC(=O)C45CCC(C)(C)CC4C4=CCC6C7(C)CCC(OC(C)=O)C(C)(C)C7CCC6(C)C4(C)CC5)CCC23C)C1(C)C (stereo not shown) [Compound 3d] | 3.59 µM | 1.33 | 4.78 µM | 2.89 µM | 1.65 | 1.35 | 3.54 µM | 3.03 µM | 1.58 | 2.5 to 4.5 µM | higher than 1.00 | – |
| CC1(C)CC[C@]2(C(=O)O)CC[C@]3(C)C(=CC[C@@H]4[C@@]5(C)CC[C@H](O)C(C)(C)[C@@H]5CC[C@]43C)[C@@H]2C1 [Compound 1, oleanolic acid] | 18.6 µM | 1.33 | 24.9 µM | – | 1.32 | 1.37 | 18.2 µM | – | 1.27 | – | – | CUPRAC antioxidant activity [3]: 0.05474 ± 0.00171 Trolox equivalents; DPPH antioxidant activity [8]: 0.01907 ± 0.0006506 Trolox equivalents |
| CC(=O)OC1CCC2(C)C(CCC3(C)C2CC=C2C4CC(C)(C)CCC4(C(=O)OCCCCCCOC(=O)C45CCC(C)(C)CC4C4=CCC6C7(C)CCC(OC(C)=O)C(C)(C)C7CCC6(C)C4(C)CC5)CCC23C)C1(C)C (stereo not shown) [Compound 3h] | 5.13 µM | 1.33 | 6.85 µM | 4.72 µM | 1.45 | 1.47 | 4.65 µM | 5.25 µM | 1.30 | 4.65 to 7.06 µM | higher than 1.00 | level of cytotoxic activity relative to oleanolic acid (1) [7]: approximately 3 times |
| CC(=O)OC1CCC2(C)C(CCC3(C)C2CC=C2C4CC(C)(C)CCC4(C(=O)OCC=CCOC(=O)C45CCC(C)(C)CC4C4=CCC6C7(C)CCC(OC(C)=O)C(C)(C)C7CCC6(C)C4(C)CC5)CCC23C)C1(C)C (stereo not shown) [Compound 3f] | – | 0.60 | – | – | 0.58 | 0.59 | – | – | 0.57 | 4.65 to 7.06 µM | about 0.5 | IC50 ([1]; Homo sapiens, PC-3, read-out: B IC50 (SD), MTT assay, PC-3 human prostate carcinoma): 6.7 µM; IC50 ([2]; HDF): 4.02 µM; IC50 ([4]; Homo sapiens, SK-OV-3, MTT assay): 6.92 µM; IC50 ([5]; Homo sapiens): 6.8 µM; IC50 ([6]; Homo sapiens, SK-BR-3, MTT assay): 7.06 µM; level of cytotoxic activity relative to oleanolic acid (1) [7]: approximately 3 times |
| CC(=O)OC1CCC2(C)C(CCC3(C)C2CC=C2C4CC(C)(C)CCC4(C(=O)OCCCCCOC(=O)C45CCC(C)(C)CC4C4=CCC6C7(C)CCC(OC(C)=O)C(C)(C)C7CCC6(C)C4(C)CC5)CCC23C)C1(C)C (stereo not shown) [Compound 3g] | 4.1 µM | 1.38 | 5.66 µM | 4.23 µM | 1.34 | 1.38 | 4.09 µM | 4.65 µM | 1.22 | 2.5 to 4.5 µM | higher than 1.00 | – |
| CC(=O)OC1CCC2(C)C(CCC3(C)C2CC=C2C4CC(C)(C)CCC4(C(=O)OCCCCCCCCCCOC(=O)C45CCC(C)(C)CC4C4=CCC6C7(C)CCC(OC(C)=O)C(C)(C)C7CCC6(C)C4(C)CC5)CCC23C)C1(C)C (stereo not shown) [Compound 3l] | 5.95 µM | 0.61 | 3.62 µM | 5.95 µM | 0.61 | 0.66 | 5.47 µM | 5.91 µM | 0.61 | 4.65 to 7.06 µM | – | DPPH activity (in words) [8]: higher antioxidant activity than OA; also recorded: highest activity; also recorded: extremely high DPPH activity; level of cytotoxic activity relative to oleanolic acid (1) [7]: approximately 3 times |
| CC1(C)CCC2(C(=O)OCCCCCCCCCCCCOC(=O)C34CCC(C)(C)CC3C3=CCC5C6(C)CCC(O)C(C)(C)C6CCC5(C)C3(C)CC4)CCC3(C)C(=CCC4C5(C)CCC(O)C(C)(C)C5CCC43C)C2C1 (stereo not shown) [Compound 2n, reference compound] | – | – | – | – | – | – | – | – | – | – | higher than 1.00 | – |
| CC(=O)OC1CCC2(C)C(CCC3(C)C2CC=C2C4CC(C)(C)CCC4(C(=O)OCCCCCCCCOC(=O)C45CCC(C)(C)CC4C4=CCC6C7(C)CCC(OC(C)=O)C(C)(C)C7CCC6(C)C4(C)CC5)CCC23C)C1(C)C (stereo not shown) [Compound 3j] | 2.72 µM | 2.32 | 6.4 µM | 2.81 µM | 2.28 | 2.32 | 2.76 µM | 2.77 µM | 2.31 | 2.5 to 4.5 µM | – | DPPH activity (in words) [8]: higher antioxidant activity than OA |
| CC(=O)OC1CCC2(C)C(CCC3(C)C2CC=C2C4CC(C)(C)CCC4(C(=O)OCCCCCCCOC(=O)C45CCC(C)(C)CC4C4=CCC6C7(C)CCC(OC(C)=O)C(C)(C)C7CCC6(C)C4(C)CC5)CCC23C)C1(C)C (stereo not shown) [Compound 3i] | 1.9 µM | 0.97 | 1.85 µM | 1.93 µM | 0.96 | 0.93 | 1.98 µM | 2 µM | 0.92 | ~2 µM | lower than 1 | IC50 [7]: ≤ 2 µM |
